Assay results: patent US20030177531A1, “Regulating metabolism by modifying the level of trehalose-6-phosphate by inhibiting endogenous trehalase levels” (Mogen International N.V., priority 1997, published 2003)

Columns and labels:
[1] = tested on: α- or β-glycohydrolase activity; settings: except for trehalase; cited from earlier work
trehalase activity = experiment: Trehalose accumulation in potato microtubers induced on medium with Validamycin A; format: cell-based, Solanum tuberosum cv. Kardal; settings: for Trehalose (% fresh weight), +Validamycin A: 10^−3M Validamycin A
Description: Stem segments of in vitro potato plants harbouring an auxiliary meristem were transferred to micro-tuber inducing medium. Micro-tuber inducing medium contains 1×MS-salts supplemented with R3 vitamins, 0.5 g/l MES (final pH=5.8, adjusted with KOH) and solidified with 8 g/l Daichin agar, 60 g/l sucrose and 2.5 mg/l kinetin. After 3 to 5 weeks of growth in the dark at 24° C., micro-tubers were formed.
Validamycin A was isolated from Solacol, a commercial agricultural formulation (Takeda Chem. Indust., Tokyo) as described by Kendall et al. (1990) Phytochemistry 29, 2525. The procedure involves ion-exchange chromatography (QAE-Sephadex A-25 (Pharmacia), bed vol. 10 ml, equilibration buffer 0.2 mM Na-Pi pH 7) from a 3% agricultural formulation of Solacol. Loading 1 ml of Solacol on the column and eluting with water in 7 fractions, practically all Validamycin was recovered in fraction 4. Based on a 100% recovery, using this procedure, the concentration of Validamycin A was adjusted to 1.10^−3M in MS-medium, for use in trehalose accumulation tests. Alternatively, Validamycin A and B may be purified directly from Streptomyces hygroscopicus var. limoneus, as described by Iwasa et al. (1971) J. Antibiot. 24, 119, the content of which is incorporated herein by reference.
Carbohydrates were determined quantitatively by anion exchange chromatography with pulsed electrochemical detection. Extracts were prepared by extracting homogenized frozen material with 80% EtOH. After extraction for 15 minutes at room temperature, the soluble fraction is evaporated and dissolved in distilled water. Samples (25 μl) were analyzed on a Dionex DX-300 liquid chromatograph equipped with a 4×250 mm Dionex 35391 carbopac PA-1 column and a 4×50 mm Dionex 43096 carbopac PA-1 precolumn. Elution was with 100 mM NaOH at 1 ml/min followed by a NaAc gradient. Sugars were detected with a pulsed electrochemical detector (Dionex, PED). Commercially available carbohydrates (Sigma) were used as a standard.
Transgenic potato plants were generated harbouring the otsA gene driven by the potato tuber-specific patatin promoter (pMOG845). Potato Solanum tuberosum cv. Kardal tuber discs were transformed with Agrobacterium tumefaciens EHA105 harbouring the binary vector pMOG845. […] All plants obtained were phenotypically indistinguishable from wild type plants. […] The presence of small amounts of trehalose in wild-type plants indicates the presence of a functional trehalose biosynthetic pathway.

Compound: OCC1=C[C@H](N[C@H]2C[C@H](CO)[C@@H](O[C@@H]3O[C@H](CO)[C@@H](O)[C@H](O)[C@H]3O)[C@H](O)[C@H]2O)[C@H](O)[C@@H](O)[C@@H]1O [Validamycin A, 1,5,6-trideoxy-3-o-β-D-glucopyranosyl-5-(hydroxymethyl)-1-[[4,5,6-trihydroxy-3-(hydroxymenthyl)-2-cyclohexen-1-yl]amino]-D-chiro-inositol]
- Inhibition of α- or β-glycohydrolase activity other than trehalase [1]: does not significantly inhibit
- Trehalose level in microtubers versus medium without Validamycin A (trehalase activity; microtuber-inducing medium with 10^−3M Validamycin A, transgenic pMOG845 and wild-type plants): elevated levels of trehalose
- Trehalose (% fresh weight), +Validamycin A (trehalase activity; microtubers of transgenic line 845-2 (pat-TPS)): 0.016 % fresh weight
- Trehalose (% fresh weight), +Validamycin A (trehalase activity; microtubers of transgenic line 845-8 (pat-TPS)): 0.051 % fresh weight
- Trehalose (% fresh weight), +Validamycin A (trehalase activity; microtubers of transgenic line 845-11 (pat-TPS)): 0.015 % fresh weight
- Trehalose (% fresh weight), +Validamycin A (trehalase activity; microtubers of transgenic line 845-13 (pat-TPS)): 0.011 % fresh weight
- Trehalose (% fresh weight), +Validamycin A (trehalase activity; microtubers of transgenic line 845-22 (pat-TPS)): 0.112 % fresh weight
- Trehalose (% fresh weight), +Validamycin A (trehalase activity; microtubers of transgenic line 845-25 (pat-TPS)): 0.002 % fresh weight
- Trehalose (% fresh weight), +Validamycin A (trehalase activity; microtubers of transgenic line 845-28 (pat-TPS)): 0.109 % fresh weight
- Trehalose (% fresh weight), +Validamycin A (trehalase activity; microtubers of wild-type Kardal): 0.001 % fresh weight
